Where two headings read alike, the source gives them in different places.
What was measured:
Format in all cases: biochemical
[1] = molecular target: 320 wild-type protein kinases (Homo sapiens, UniProt P29376); settings: LTK, singlicate
From the text: (§1) Table S4. Profiling of two compounds at two concentrations against 320 wild-type protein kinases; singlicate measurement; Residual activities (% of control).

[2] = molecular target: T1, 320 wild-type protein kinases (Homo sapiens, UniProt P42681); settings: kinase TXK, singlicate
T1 sequence (P42681 1-527): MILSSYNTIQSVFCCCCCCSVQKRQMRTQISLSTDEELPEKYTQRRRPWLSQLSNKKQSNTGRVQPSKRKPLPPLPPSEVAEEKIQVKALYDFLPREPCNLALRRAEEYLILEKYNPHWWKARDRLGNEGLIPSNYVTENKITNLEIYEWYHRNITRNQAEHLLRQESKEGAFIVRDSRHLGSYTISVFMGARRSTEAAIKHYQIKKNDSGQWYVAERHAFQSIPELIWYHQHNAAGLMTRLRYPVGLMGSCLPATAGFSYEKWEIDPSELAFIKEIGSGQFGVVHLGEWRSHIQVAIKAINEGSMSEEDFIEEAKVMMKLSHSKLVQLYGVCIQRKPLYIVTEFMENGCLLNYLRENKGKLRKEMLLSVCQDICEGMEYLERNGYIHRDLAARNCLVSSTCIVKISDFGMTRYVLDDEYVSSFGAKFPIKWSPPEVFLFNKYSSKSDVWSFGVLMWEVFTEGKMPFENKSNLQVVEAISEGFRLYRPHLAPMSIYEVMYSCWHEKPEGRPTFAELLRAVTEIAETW
From the text: as §1

[3] = molecular target: T2, 320 wild-type protein kinases (Homo sapiens, UniProt O15530); settings: singlicate
T2 sequence (O15530 1-556): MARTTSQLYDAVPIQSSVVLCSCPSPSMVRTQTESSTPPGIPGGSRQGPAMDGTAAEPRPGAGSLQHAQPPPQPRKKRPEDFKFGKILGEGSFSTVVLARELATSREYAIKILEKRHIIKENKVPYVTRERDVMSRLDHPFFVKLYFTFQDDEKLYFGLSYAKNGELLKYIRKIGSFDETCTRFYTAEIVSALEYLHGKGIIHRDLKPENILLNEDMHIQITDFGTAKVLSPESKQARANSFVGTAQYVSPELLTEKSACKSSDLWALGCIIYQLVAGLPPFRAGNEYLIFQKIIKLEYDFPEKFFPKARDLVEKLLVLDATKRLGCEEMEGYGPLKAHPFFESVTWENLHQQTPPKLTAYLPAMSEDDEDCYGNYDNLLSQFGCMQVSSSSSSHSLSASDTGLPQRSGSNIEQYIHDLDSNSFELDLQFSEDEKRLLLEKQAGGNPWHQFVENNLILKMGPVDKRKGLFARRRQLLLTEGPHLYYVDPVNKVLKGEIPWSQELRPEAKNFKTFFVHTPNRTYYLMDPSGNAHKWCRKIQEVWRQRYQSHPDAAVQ
From the text: as §1

[4] = molecular target: 320 wild-type protein kinases (Homo sapiens, UniProt P04629); settings: kinase TRK-A, singlicate
From the text: as §1

[5] = molecular target: 320 wild-type protein kinases (Homo sapiens, UniProt P53350); settings: singlicate
From the text: as §1

[6] = molecular target: 320 wild-type protein kinases (Homo sapiens, UniProt P68400); settings: singlicate
From the text: as §1

[7] = molecular target: T3, 320 wild-type protein kinases (Homo sapiens, UniProt P41743); settings: PKC-iota, singlicate
T3 sequence (P41743 1-596): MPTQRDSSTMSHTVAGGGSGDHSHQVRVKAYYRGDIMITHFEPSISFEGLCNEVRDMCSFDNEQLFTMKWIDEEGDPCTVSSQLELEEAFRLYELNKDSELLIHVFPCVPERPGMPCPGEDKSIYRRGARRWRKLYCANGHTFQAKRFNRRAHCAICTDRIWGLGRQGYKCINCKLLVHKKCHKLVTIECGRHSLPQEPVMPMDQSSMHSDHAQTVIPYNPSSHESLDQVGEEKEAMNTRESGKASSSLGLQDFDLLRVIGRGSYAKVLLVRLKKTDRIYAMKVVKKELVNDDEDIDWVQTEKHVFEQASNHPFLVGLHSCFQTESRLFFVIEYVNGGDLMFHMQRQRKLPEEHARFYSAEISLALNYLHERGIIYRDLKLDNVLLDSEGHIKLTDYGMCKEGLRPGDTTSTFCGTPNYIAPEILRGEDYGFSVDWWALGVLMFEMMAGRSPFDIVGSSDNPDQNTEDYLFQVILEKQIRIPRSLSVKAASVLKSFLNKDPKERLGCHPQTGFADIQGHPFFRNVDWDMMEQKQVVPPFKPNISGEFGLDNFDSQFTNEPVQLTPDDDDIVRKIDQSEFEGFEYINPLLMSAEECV
From the text: as §1

[8] = molecular target: 320 wild-type protein kinases (Homo sapiens, UniProt P78527); settings: DNA-PK, singlicate
From the text: as §1

[9] = molecular target: 320 wild-type protein kinases (Homo sapiens, UniProt Q13882); settings: BRK, singlicate
From the text: as §1

[10] = molecular target: 320 wild-type protein kinases (Homo sapiens, UniProt P42685); settings: FRK, singlicate
From the text: as §1

Sequence of 320 wild-type protein kinases (Homo sapiens, UniProt P78527) (P78527 whole entry): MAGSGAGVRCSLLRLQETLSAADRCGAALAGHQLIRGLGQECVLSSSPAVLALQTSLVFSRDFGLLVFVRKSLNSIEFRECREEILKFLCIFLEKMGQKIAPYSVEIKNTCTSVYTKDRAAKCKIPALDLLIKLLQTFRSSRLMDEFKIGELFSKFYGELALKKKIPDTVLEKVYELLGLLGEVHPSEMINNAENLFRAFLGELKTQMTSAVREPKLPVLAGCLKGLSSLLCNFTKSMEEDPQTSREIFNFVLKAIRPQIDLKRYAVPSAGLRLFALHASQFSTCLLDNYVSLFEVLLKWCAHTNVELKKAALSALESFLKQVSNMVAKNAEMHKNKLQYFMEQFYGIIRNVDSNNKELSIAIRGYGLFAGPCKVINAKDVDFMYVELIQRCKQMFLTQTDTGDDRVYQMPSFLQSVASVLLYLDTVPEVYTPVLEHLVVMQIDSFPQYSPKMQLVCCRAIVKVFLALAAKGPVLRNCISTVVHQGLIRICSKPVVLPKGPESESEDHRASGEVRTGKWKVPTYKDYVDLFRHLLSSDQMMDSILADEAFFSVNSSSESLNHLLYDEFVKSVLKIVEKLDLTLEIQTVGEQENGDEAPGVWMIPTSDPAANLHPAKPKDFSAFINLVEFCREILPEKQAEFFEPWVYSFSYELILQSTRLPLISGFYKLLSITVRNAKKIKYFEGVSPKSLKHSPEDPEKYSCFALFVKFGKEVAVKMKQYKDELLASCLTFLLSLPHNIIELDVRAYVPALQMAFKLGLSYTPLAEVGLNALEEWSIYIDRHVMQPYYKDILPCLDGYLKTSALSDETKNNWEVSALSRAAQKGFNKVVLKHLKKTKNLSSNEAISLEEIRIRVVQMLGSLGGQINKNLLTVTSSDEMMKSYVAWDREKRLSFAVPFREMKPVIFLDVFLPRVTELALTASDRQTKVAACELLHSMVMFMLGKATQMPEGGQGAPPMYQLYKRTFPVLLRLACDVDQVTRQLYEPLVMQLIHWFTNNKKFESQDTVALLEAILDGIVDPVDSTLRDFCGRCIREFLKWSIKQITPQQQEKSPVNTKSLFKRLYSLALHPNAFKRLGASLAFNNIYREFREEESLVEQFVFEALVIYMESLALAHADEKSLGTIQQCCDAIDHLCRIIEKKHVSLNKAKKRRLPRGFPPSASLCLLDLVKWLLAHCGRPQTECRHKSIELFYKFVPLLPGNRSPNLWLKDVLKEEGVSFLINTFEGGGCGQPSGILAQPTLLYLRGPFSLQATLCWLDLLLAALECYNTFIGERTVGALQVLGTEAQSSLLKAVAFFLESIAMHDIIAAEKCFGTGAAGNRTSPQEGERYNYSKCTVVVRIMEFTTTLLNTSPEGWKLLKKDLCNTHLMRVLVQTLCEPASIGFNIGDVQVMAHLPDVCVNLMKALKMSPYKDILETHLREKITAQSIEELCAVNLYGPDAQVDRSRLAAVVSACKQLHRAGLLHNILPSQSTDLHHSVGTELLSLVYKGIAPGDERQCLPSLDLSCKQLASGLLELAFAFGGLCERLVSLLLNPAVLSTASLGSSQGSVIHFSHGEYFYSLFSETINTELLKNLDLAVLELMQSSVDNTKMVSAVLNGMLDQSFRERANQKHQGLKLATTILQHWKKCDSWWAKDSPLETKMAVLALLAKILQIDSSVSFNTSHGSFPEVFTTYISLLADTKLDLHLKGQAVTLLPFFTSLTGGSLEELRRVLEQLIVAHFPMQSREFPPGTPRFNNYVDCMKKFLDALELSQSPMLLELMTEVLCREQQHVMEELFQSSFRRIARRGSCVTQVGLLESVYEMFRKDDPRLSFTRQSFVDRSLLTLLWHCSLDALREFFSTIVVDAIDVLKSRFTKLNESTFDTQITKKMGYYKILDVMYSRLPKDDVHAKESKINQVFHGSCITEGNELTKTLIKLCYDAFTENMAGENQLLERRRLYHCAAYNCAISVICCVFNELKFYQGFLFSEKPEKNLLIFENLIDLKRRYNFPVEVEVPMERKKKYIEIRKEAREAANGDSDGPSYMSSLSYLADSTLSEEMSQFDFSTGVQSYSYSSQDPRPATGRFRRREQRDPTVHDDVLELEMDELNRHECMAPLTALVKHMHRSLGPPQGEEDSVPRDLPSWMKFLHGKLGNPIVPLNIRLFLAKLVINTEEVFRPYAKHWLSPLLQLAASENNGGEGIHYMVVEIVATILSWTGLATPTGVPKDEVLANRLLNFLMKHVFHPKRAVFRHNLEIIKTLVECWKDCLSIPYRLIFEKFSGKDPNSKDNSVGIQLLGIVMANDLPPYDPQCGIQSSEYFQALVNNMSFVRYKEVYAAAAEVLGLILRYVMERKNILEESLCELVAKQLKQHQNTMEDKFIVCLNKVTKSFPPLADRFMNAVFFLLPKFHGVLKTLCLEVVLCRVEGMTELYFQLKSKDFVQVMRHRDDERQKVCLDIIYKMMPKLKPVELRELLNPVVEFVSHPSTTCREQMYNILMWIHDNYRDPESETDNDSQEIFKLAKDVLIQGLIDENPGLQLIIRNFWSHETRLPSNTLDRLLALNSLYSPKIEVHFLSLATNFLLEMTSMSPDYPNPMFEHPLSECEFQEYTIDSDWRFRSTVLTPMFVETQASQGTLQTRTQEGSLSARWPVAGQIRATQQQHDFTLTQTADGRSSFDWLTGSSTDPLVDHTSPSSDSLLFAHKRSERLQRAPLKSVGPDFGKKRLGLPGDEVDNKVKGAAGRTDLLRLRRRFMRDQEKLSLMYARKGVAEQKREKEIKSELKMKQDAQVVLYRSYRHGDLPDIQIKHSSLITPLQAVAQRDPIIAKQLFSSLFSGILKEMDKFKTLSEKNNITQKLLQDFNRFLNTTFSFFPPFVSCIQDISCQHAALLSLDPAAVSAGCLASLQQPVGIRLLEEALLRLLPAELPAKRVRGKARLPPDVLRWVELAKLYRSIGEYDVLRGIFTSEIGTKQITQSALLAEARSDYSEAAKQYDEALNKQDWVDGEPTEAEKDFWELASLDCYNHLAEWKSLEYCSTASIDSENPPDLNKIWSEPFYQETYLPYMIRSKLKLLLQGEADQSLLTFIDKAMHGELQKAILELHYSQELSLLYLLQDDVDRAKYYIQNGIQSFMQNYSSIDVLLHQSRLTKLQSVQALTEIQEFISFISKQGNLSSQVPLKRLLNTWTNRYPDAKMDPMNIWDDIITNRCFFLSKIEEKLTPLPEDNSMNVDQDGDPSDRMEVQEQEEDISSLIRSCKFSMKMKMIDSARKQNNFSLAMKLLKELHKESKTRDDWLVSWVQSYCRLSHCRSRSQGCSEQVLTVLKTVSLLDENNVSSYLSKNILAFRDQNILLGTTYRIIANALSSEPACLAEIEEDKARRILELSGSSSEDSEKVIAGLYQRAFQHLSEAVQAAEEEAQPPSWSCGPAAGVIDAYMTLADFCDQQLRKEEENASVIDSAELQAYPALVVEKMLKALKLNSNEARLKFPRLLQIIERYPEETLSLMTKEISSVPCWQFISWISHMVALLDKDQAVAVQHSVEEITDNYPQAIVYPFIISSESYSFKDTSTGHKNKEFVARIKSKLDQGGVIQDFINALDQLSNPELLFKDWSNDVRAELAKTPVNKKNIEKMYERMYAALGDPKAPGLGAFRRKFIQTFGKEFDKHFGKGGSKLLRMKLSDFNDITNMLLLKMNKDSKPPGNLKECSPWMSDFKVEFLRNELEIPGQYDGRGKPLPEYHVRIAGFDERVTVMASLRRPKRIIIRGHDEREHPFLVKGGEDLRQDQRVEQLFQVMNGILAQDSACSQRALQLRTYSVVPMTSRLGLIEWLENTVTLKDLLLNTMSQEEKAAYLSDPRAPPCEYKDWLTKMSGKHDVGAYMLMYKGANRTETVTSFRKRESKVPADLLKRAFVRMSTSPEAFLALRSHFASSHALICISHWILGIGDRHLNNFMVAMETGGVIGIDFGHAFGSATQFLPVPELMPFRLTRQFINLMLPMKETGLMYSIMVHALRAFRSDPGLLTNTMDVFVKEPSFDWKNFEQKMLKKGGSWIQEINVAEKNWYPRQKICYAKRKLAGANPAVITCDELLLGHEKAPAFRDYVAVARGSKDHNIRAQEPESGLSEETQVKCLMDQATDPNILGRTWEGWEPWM
Sequence of 320 wild-type protein kinases (Homo sapiens, UniProt P42685) (P42685 whole entry): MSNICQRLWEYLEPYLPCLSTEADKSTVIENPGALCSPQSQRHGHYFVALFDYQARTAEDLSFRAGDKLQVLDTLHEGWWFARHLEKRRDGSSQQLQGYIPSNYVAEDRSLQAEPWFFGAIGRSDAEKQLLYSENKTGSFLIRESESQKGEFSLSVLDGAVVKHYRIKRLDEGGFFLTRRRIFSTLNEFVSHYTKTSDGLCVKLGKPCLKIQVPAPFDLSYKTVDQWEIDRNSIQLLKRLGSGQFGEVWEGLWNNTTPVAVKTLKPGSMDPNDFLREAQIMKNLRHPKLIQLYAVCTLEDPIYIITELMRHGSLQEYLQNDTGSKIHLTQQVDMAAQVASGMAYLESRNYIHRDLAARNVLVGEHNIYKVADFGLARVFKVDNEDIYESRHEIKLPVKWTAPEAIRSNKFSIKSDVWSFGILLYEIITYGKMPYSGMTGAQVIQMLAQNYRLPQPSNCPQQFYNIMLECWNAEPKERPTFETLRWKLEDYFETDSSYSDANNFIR
Sequence of 320 wild-type protein kinases (Homo sapiens, UniProt P68400) (P68400 whole entry): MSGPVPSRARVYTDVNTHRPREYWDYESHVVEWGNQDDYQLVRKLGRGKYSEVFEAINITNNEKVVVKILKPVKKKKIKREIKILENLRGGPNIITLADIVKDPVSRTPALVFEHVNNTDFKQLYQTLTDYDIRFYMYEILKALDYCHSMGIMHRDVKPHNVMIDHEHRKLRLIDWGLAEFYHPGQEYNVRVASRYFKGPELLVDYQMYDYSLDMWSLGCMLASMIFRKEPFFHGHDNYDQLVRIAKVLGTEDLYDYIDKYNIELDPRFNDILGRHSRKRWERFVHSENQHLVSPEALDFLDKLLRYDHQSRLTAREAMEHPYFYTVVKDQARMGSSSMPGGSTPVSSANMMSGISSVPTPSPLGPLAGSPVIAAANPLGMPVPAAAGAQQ

| Compound | Residual activity ([1]; 1.0E-06 M) | Residual activity ([1]; 1.0E-07 M) | Residual activity, TXK ([2]; assay conc. 1.0E-06 M) | Residual activity, TXK ([2]; assay conc. 1.0E-07 M) | Residual activity ([3]; PDK1, 1.0E-06 M) | Residual activity ([3]; PDK1, 1.0E-07 M) | Residual activity, TRK-A ([4]; assay conc. 1.0E-06 M) | Residual activity, TRK-A ([4]; assay conc. 1.0E-07 M) | Residual activity ([5]; PLK1, 1.0E-06 M) | Residual activity ([5]; PLK1, 1.0E-07 M) | Residual activity ([6]; CK2-alpha1, 1.0E-06 M) | Residual activity ([6]; CK2-alpha1, 1.0E-07 M) | Residual activity ([7]; 1.0E-06 M) | Residual activity ([7]; 1.0E-07 M) | Residual activity ([8]; 1.0E-06 M) | Residual activity ([8]; 1.0E-07 M) | Residual activity ([9]; 1.0E-06 M) | Residual activity ([9]; 1.0E-07 M) | Residual activity ([10]; 1.0E-06 M) | Residual activity ([10]; 1.0E-07 M) |
| --- | --- | --- | --- | --- | --- | --- | --- | --- | --- | --- | --- | --- | --- | --- | --- | --- | --- | --- | --- | --- |
| C#Cc1cc(Nc2ncnc3cc(I)ccc23)ccc1Cl [Compound 41] | 77 % of control | 106 % of control | 79 % of control | 90 % of control | 77 % of control | 96 % of control | 107 % of control | 100 % of control | 98 % of control | 98 % of control | 99 % of control | 104 % of control | 104 % of control | 119 % of control | 100 % of control | 96 % of control | 110 % of control | 100 % of control | 106 % of control | 93 % of control |
| C#Cc1cc(Nc2ncnc3cc(OC)c(OC)cc23)ccc1Cl [Compound 45] | 54 % of control | 100 % of control | 52 % of control | 91 % of control | 79 % of control | 93 % of control | 87 % of control | 106 % of control | 77 % of control | 91 % of control | 101 % of control | 109 % of control | 96 % of control | 139 % of control | 85 % of control | 108 % of control | 70 % of control | 96 % of control | 74 % of control | 96 % of control |

Reference: article PMC9329436, “Optimization of the 4-anilinoquin(az)oline scaffold as epidermal growth factor receptor (EGFR) inhibitors for chordoma utilizing a toxicology profiling assay platform” (Scientific Reports, 2022)
